Measurements reported in patent EP1304107A2, “Use of oxazolidinines derivatives for treating psoriasis” (PHARMACIA & UPJOHN COMPANY, priority 1997, dated 1999).

What was measured:
psoriasis = assay: Case report: treatment of a patient with chronic psoriasis (EXAMPLE A); type: in vivo, human; settings: person
Method: They had chronic psoriatic lesions of both elbows, groin, left leg, right leg, and lower back. The lesions were treated in the past with coal tar and topical steroids but not UV light. They were allergic to the excipients in the steroidal topical preparations.
After six months it had returned to the pretreatment state.

arthritis = assay: Case report: patient with arthritis treated for pneumonia (EXAMPLE B); type: in vivo, human; settings: person (Subject No 1912); 625 mg twice daily intravenously for 3 days, then 8 days oral at the same dose; taking no medications at follow up
[1] = after 625 mg twice daily for fourteen days

Compound: CC(=O)NC[C@H]1CN(c2ccc(N3CCOCC3)c(F)c2)C(=O)O1 [EXAMPLE 2, (S)-N-[[3-[3-Fluoro-4-(4-morpholinyl)phenyl]-2-oxo-5-oxazolidinyl]methyl]acetamide]
- improvement in their psoriasis (psoriasis; 625 mg twice daily for fourteen days (IV five days, then orally nine days), onset as soon as they started taking the medication): immediate improvement
- clearing of the psoriasis (psoriasis; 625 mg twice daily for fourteen days, no other psoriasis treatment, from the time they took the medication): complete clearing
- time until psoriasis gradually began to return (psoriasis; [1]): three
- time until psoriasis had returned to the pretreatment state (psoriasis; [1]): six
- arthritis status stated by the patient at long term follow up (arthritis): arthritis was gone
